Three molecules from patent publication EP0449026A2, “Desoxynojirimycin derivatives, process for their preparation and their use in drugs” (BAYER AG, priority 1990, dated 1991) can be followed below.

≈ marks a conversion by molar mass, not a printed value.

In this experiment the test system is Visna-Virus. The experiment is described as follows: Visna virus test: inhibition of the virus-induced cytopathic effect in infected sheep fibroblast cultures. The conditions noted are these: Visna-maedi virus, Fibroblastenzellen vom Schaf, MOI ca. 0,05, 7 Tage bei 37°C 5% CO₂, concentration at which the cytopathic effect is inhibited by 50%, read microscopically. The experiment is classed as cell-based. From the text: In Zellkulturen, die mit Visna-Virus infiziert sind, treten 5 bis 10 Tage nach der Infektion ausgeprägte virusinduzierte, zytopathische Effekte auf. Durch Behandlung der infizierten Zellkulturen mit den erfindungsgemäßen Verbindungen konnte das Auftreten dieser zytopathischen Effekte verhindert werden.
Der Visna-Virus-Test wurde nach der Methode von O. Narayan et al., Journal of Infectious Diseases 135, 5, 1977, 800 - 806 durchgeführt. Dazu wurden die erfindungsgemäßen Verbindungen im Kulturmedium in nicht zytotoxischen Konzentrationen in 96er Microtiterplatten verdünnt. Anschließend wurden Fibroblastenzellen vom Schaf (5 x 10⁴ Zellen pro Napf) in Produktionsmedium zu jedem Näpfchen zugeführt. Jedes Näpfchen erhielt dann 50 µl einer Visna-Viruslösung mit einer Titer von ca. […] TCID₅₀ (TCID = tissue culture infectious dosis). Diese Virusdosis entspricht einer MOI (Multiplizität der Infektion) von ca. 0,05.
Unter diesen Infektionsbedingungen resultierte zwischen Tag 5 und Tag 10 in einer Infektionskontrolle ohne Substanz ein virusinduzierter, zytopathischer Effekt. Die infizierten und behandelten Zellen und die Kontrollzellen wurden 7 Tage bei 37°C 5% CO₂ inkubiert.
Bei Auftreten des virusinduzierten zytopathogenen Effektes in der unbehandelten Viruskontrolle wurden die Kulturen mit Formalin fixiert und anschließend mit einer Giemsa-Lösung gefärbt. Die inhibitorische Konzentration (IC₅₀) wurde mikroskopisch als die Konzentration ermittelt, bei der der zytopathische Effekt um 50% gehemmt wurde: im Vergleich zur unbehandelten Viruskontrolle, die 100% Zellzerstörung aufwies.
For orientation: Cytopathic effects are the visible damage that an infection or toxin causes in cultured cells.

For `CC=CCN1CC(OC(=O)c2ccccc2)C(OC(=O)c2ccccc2)C(O)C1CO` (stereo not drawn) [Beispiel 3, N-Butenyl-2,3-dibenzoyl-desoxynojirimycin], the IC50 – broadly, the midpoint of a concentration-inhibition curve – came to 50 µg/mL (≈ 118 µM).

Molecule `CC=CCN1CC(OC(C)=O)C(OC(C)=O)C(O)C1CO` (stereo not drawn) [Beispiel 6] displayed an IC50 of 12.5 µg/mL (≈ 41.5 µM). This IC50 is about 4-fold lower than that of the molecule before.

The molecule `CC=CCN1CC(OC(=O)CC(C)C)C(OC(=O)CC(C)C)C(O)C1CO` (stereo not drawn) [Beispiel 10] came in with an IC50 of 20 µg/mL (≈ 51.9 µM).
